Data on 26 compounds can be found in US20130184272A1, “DIABETES THERAPEUTIC AGENT” (TAKEDA PHARMACEUTICAL COMPANY LIMITED, priority 2010, published 2013).

The structures appear in SMILES notation.

The subject of test [1] is C2C12 cell. The experiment in a line: Sugar metabolism promoting activity in muscle cell (lactic acid production). Conditions: compound 1 μM, 2 days, C2C12 myotubes, without drug = 100%; for activity at 1 µM: Mus musculus, 48 h, read-out: lactic acid production promoting action (%). The class given is cell-based, Mouse. The method, then: • (1) In the same manner as in Example 1, C2C12 cell was cultured in a growth medium. After reaching subconfluence of not less than 90%, the medium was exchanged with a differentiation medium and the cells were cultured for about 7 days while exchanging the medium every 2 or 3 days until the cells differentiated to form a myotube. • (2) After confirmation of myotube formation under a microscope, the test compound (1 μM) was added to a differentiation medium and cultured for 2 days. The cells were washed with Krebs-Ringer HEPES phosphate buffer (10 mM HEPES, pH 7.4, 131 mM NaCl, 4.7 mM KCl, 2.5 mM CaCl2—2H2O, 1.2 mM MgSO4—7H2O, 1.2 mM KH2PO4), the medium was exchanged with Krebs-Ringer HEPES phosphate buffer added with 5 mM glucose, 0.2% fatty acid-free bovine serum albumin, and cultured at 37° C. for 4 hr. • (3) The lactic acid concentration of the culture supernatant was measured using Detarminer LA kit (Kyowa Medex Co., Ltd.).
The numerical values in Table 2 show the concentration of the compound addition group with the concentration of lactic acid without addition of a drug as 100%.

The subject of test [2] is Mouse-derived myoblast line C2C12 cell. Kind of test: Cell differentiation promoting activity in myoblast (creatine kinase activity). The format is cell-based. The following applies: 2 days, without compound = 100%; for activity at 1 µM / activity at 0.01 µM / activity at 10 µM: Mus musculus, C2C12, 48 h, read-out: creatine kinase activating action (%); for activity at 0.01 µM: compound at 0.01 μM (**); for activity at 10 µM: compound at 10 μM (*). The method, then:
• (1) Mouse-derived myoblast line C2C12 cell (Dainippon Pharmaceutical Co., Ltd.) was subcultured in a high glucose Eagle's modified Dulbecco's medium (GIBCO) added with 10% calf fetal bovine serum (GIBCO), 100 unit/mL penicillin and 100 μg/mL streptomycin (hereinafter to be referred to as a growth medium), plated at 5000 cells/cm^2 and cultured at 37° C., under 5% CO2. • (2) When the cells reached subconfluence of not less than 90%, the medium was exchanged with high glucose Eagle's modified Dulbecco's medium (GIBCO) added with (i) 2% horse serum (GIBCO) and (ii) penicillin, streptomycin and a test compound (hereinafter to be referred to as a differentiation medium) and the cells were cultured for 2 days. To the control group was added DMSO solution instead of the test compound. • (3) The cells were washed with PBS, 0.5% NP-40 solution was added, and the cells were lysed by freeze-thawing. The cell extract was centrifuged and the creatine kinase activity in the supernatant was measured as an index of muscle differentiation. The creatine kinase activity was measured using CPKII Test Wako (Wako Pure Chemical Industries, Ltd.) according to the manual of the kit.
The numerical values in Table 1 show creatine kinase activity of the compound addition group when the creatine kinase activity without addition of the compound is 100%, and * means measurement with addition of the compound at 10 μM, ** at 0.01 μM, and others at 1 μM.

As for `Cn1ncc2c1-c1c(Oc3ccc4c(c3)OCO4)sc(C(N)=O)c1CC2(C)C` [Ref. Ex. 29, 8-(1,3-benzodioxol-5-yloxy)-1,4,4-trimethyl-4,5-dihydro-1H-thieno[3,4-g]indazole-6-carboxamide], the activity at 1 µM in test [1] was 264%; in test [2] (compound at 1 μM), 183%.

For `COc1ccc(Oc2sc(C(N)=O)c3c2-c2c(cnn2C)CC3)cn1` [Ref. Ex. 35, 8-[(6-methoxypyridin-3-yl)oxy]-1-methyl-4,5-dihydro-1H-thieno[3,4-g]indazole-6-carboxamide], the activity at 1 µM in test [1] turned out to be 228%. For the same compound, the activity at 0.01 µM in test [2] turned out to be 192%.

For `Cn1ncc2c1-c1c(OCc3ccncc3)sc(C(N)=O)c1CC2` [Ref. Ex. 5, 1-methyl-8-(pyridin-4-ylmethoxy)-4,5-dihydro-1H-thieno[3,4-g]indazole-6-carboxamide], the figures for the activity at 1 µM in test [1] and in test [2] (compound at 1 μM) were 124% and 113%, respectively.

For `Cn1ncc2c1-c1c(S(=O)(=O)c3ccc4c(c3)OCO4)sc(C(N)=O)c1CC2` [Ref. Ex. 39, 8-(1,3-benzodioxol-5-ylsulfonyl)-1-methyl-4,5-dihydro-1H-thieno[3,4-g]indazole-6-carboxamide], the activity at 1 µM in test [1] worked out at 207%; in test [2] (compound at 1 μM), 176%.

As for `Cn1ncc2c1-c1c(Nc3ccccc3)sc(C(N)=O)c1CC2` [Ref. Ex. 12, 1-methyl-8-(phenylamino)-4,5-dihydro-1H-thieno[3,4-g]indazole-6-carboxamide], in test [2], the activity at 10 µM was 162%.

Take `Cn1ncc2c1-c1c(Oc3ccc(CC(=O)O)cc3)sc(C(N)=O)c1CC2` [Ref. Ex. 24, {4-[(6-carbamoyl-1-methyl-4,5-dihydro-1H-thieno[3,4-g]indazol-8-yl)oxy]phenyl}acetic acid]: the activity at 1 µM in test [1] is 126%; in test [2] (compound at 1 μM), 142%.

Turning to `Cn1ncc2c1-c1c(OC3CCCC3)sc(C(N)=O)c1CC2` [Ref. Ex. 17, 8-(cyclopentyloxy)-1-methyl-4,5-dihydro-1H-thieno[3,4-g]indazole-6-carboxamide], the activity at 1 µM in test [1] worked out at 141%; in test [2] (compound at 1 μM), 177%.

As to `Cn1ncc2c1-c1c(Oc3ccc(OCc4ccc5ccccc5n4)cc3)sc(C(N)=O)c1CC2` [Ref. Ex. 10, 1-methyl-8-[4-(quinolin-2-ylmethoxy)phenoxy]-4,5-dihydro-1H-thieno[3,4-g]indazole-6-carboxamide], the activity at 1 µM in test [1] turned out to be 259%. In test [2], the activity at 0.01 µM came to 193%.

In the case of `COCCOc1sc(C(N)=O)c2c1-c1c(cnn1C)CC2` [Ref. Ex. 4, 8-(2-methoxyethoxy)-1-methyl-4,5-dihydro-1H-thieno[3,4-g]indazole-6-carboxamide], the results for the activity at 1 µM in test [1] and in test [2] (compound at 1 μM) were 239% and 138%, respectively.

Regarding `Cn1ncc2c1-c1c(Oc3ccc[n+]([O-])c3)sc(C(N)=O)c1CC2` [Ref. Ex. 33, 1-methyl-8-[(1-oxidepyridin-3-yl)oxy]-4,5-dihydro-1H-thieno[3,4-g]indazole-6-carboxamide], the “lactic acid production promoting action (%)” value in test [1] is 155%. For the same compound, in test [2] (compound at 1 μM), the “creatine kinase activating action (%)” value is listed as 156%.

Turning to `Cn1ncc2c1-c1c(Oc3cccnc3N)sc(C(N)=O)c1CC2` [Ref. Ex. 32, 8-[(2-aminopyridin-3-yl)oxy]-1-methyl-4,5-dihydro-1H-thieno[3,4-g]indazole-6-carboxamide], the activity at 1 µM stood at 295% in test [1] and 101% in test [2] (compound at 1 μM).

Regarding `Cn1ncc2c1-c1c(Cc3ccccc3)sc(C(N)=O)c1CC2` [Ref. Ex. 16, 8-benzyl-1-methyl-4,5-dihydro-1H-thieno[3,4-g]indazole-6-carboxamide], the activity at 1 µM in test [1] came out at 194%. Besides, the activity at 0.01 µM in test [2] was determined as 150%.

Regarding `Cc1cccc(Oc2sc(C(N)=O)c3c2-c2c(cnn2C)CC3)n1` [Ref. Ex. 38, 1-methyl-8-[(6-methylpyridin-2-yl)oxy]-4,5-dihydro-1H-thieno[3,4-g]indazole-6-carboxamide], the activity at 1 µM in test [1] amounted to 157%; in test [2] (compound at 1 μM) it was 152%.

For `COc1cccc(Oc2sc(C(N)=O)c3c2-c2c(cnn2C)CC3)c1` [Ref. Ex. 21, 8-(3-methoxyphenoxy)-1-methyl-4,5-dihydro-1H-thieno[3,4-g]indazole-6-carboxamide], in test [1], the activity at 1 µM is 184%. The activity at 0.01 µM in test [2] is 198%.

In the case of `NC(=O)c1sc(Oc2ccccc2)c2c1CCc1cn[nH]c1-2` [Ref. Ex. 20, 8-phenoxy-4,5-dihydro-1H-thieno[3,4-g]indazole-6-carboxamide], the activity at 1 µM in test [1] was 167%; in test [2] (compound at 1 μM), 121%.

For the compound `Cn1ncc2c1-c1c(Oc3ccc(C[C@H](N)C(=O)N4CCOCC4)cc3)sc(C(N)=O)c1CC2` [Ref. Ex. 25, 8-{4-[(2S)-2-amino-3-morpholin-4-yl-3-oxopropyl]phenoxy}-1-methyl-4,5-dihydro-1H-thieno[3,4-g]indazole-6-carboxamide], the activity at 1 µM in test [1] is 235%; in test [2] (compound at 1 μM) it was 180%.

In the case of `Cn1ncc2c1-c1c(Oc3ncccn3)sc(C(N)=O)c1CC2` [Ref. Ex. 37, 1-methyl-8-(pyrimidin-2-yloxy)-4,5-dihydro-1H-thieno[3,4-g]indazole-6-carboxamide], the activity at 1 µM in test [1] amounted to 255%; in test [2] (compound at 1 μM), 129%.

Regarding `Cc1ccc(Oc2sc(C(N)=O)c3c2-c2c(cnn2C)CC3)cn1` [Ref. Ex. 31, 1-methyl-8-[(6-methylpyridin-3-yl)oxy]-4,5-dihydro-1H-thieno[3,4-g]indazole-6-carboxamide], the activity at 1 µM in test [1] was 253%. Also, the activity at 0.01 µM in test [2] was found to be 150%.

With `Cn1ncc2c1-c1c(Oc3ccc(OCc4ccncc4)cc3)sc(C(N)=O)c1CC2` [Ref. Ex. 23, 1-methyl-8-[4-(pyridin-4-ylmethoxy)phenoxy]-4,5-dihydro-1H-thieno[3,4-g]indazole-6-carboxamide], in test [1], the activity at 1 µM was determined as 252%. In test [2], the activity at 0.01 µM stood at 191%.

Take `CN(C)c1cccc(Oc2sc(C(N)=O)c3c2-c2c(cnn2C)CC3)c1` [Ref. Ex. 26, 8-[3-(dimethylamino)phenoxy]-1-methyl-4,5-dihydro-1H-thieno[3,4-g]indazole-6-carboxamide]: the activity at 1 µM in test [1] is 175%; in test [2] (compound at 1 μM) it was 156%.

As to `CN(C)c1sc(C(N)=O)c2c1-c1c(cnn1C)CC2` [Ref. Ex. 36, 8-(dimethylamino)-1-methyl-4,5-dihydro-1H-thieno[3,4-g]indazole-6-carboxamide], the results for the activity at 1 µM in test [1] and in test [2] (compound at 1 μM) were 211% and 139%, respectively.

On to `COCCOc1ccc(Oc2sc(C(N)=O)c3c2-c2c(cnn2C)CC3)cn1` [Ref. Ex. 42, 8-{[6-(2-methoxyethoxy)pyridin-3-yl]oxy}-1-methyl-4,5-dihydro-1H-thieno[3,4-g]indazole-6-carboxamide], for which the activity at 1 µM in test [1] was found to be 319%. For the same compound, the activity at 0.01 µM in test [2] was 179%.

As to `Cn1ncc2c1-c1c(Oc3cccnc3OCCN3CCCC3=O)sc(C(N)=O)c1CC2` [Ref. Ex. 40, 1-methyl-8-({2-[2-(2-oxopyrrolidin-1-yl)ethoxy]pyridin-3-yl}oxy)-4,5-dihydro-1H-thieno[3,4-g]indazole-6-carboxamide], the activity at 1 µM in test [1] and in test [2] (compound at 1 μM) was 120% in each case.

For `CCCS(=O)(=O)c1sc(C(N)=O)c2c1-c1c(cnn1C)CC2` [Ref. Ex. 13, 1-methyl-8-(propylsulfonyl)-4,5-dihydro-1H-thieno[3,4-g]indazole-6-carboxamide], the activity at 1 µM in test [1] was 154%. Also, the activity at 10 µM in test [2] was 128%.

Regarding `CNC(=O)c1sc(Oc2ccccc2)c2c1CCc1cnn(C)c1-2` [Ref. Ex. 6, N,1-dimethyl-8-phenoxy-4,5-dihydro-1H-thieno[3,4-g]indazole-6-carboxamide], the values for the activity at 1 µM in test [1] and in test [2] (compound at 1 μM) were 187% and 164%, respectively.

Take `Cn1ncc2c1-c1c(Oc3ccc4ncccc4c3)sc(C(N)=O)c1CC2` [Ref. Ex. 18, 1-methyl-8-(quinolin-6-yloxy)-4,5-dihydro-1H-thieno[3,4-g]indazole-6-carboxamide]: in test [1], the activity at 1 µM worked out at 220%. The activity at 0.01 µM in test [2] turned out to be 160%.
